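How tested: cells in 96-well plates exposed to compound for 48 hours at five concentrations. GI50 is the concentration that inhibits growth by half.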 Activity calls are given as the source filed them. Cut-off read from the data, not from the text of the source: active = GI50 up to about 1.1 µM and inactive = higher.
How the values were obtained:
Assay in all cases: NCI-60 cell line screen, 48 h
[1] = system: A498
[2] = system: CCRF-CEM
[3] = system: COLO 205
[4] = system: HOP-62
[5] = system: HT-29
[6] = system: KM12
[7] = system: LOX IMVI
[8] = system: M14
[9] = system: NCI-H23
[10] = system: NCI-H522
[11] = system: OVCAR-8
[12] = system: SK-MEL-5
[13] = system: SNB-19
[14] = system: SW-620
[15] = system: TK-10
[16] = system: UACC-62
[17] = system: CAKI-1
[18] = system: HL-60
[19] = system: RPMI-8226

Compound	GI50 [1]	GI50 [2]	GI50 [3]	GI50 [4]	GI50 [5]	GI50 [6]	GI50 [7]	GI50 [8]	GI50 [9]	GI50 [10]	GI50 [11]	GI50 [12]	GI50 [13]	GI50 [14]	GI50 [15]	GI50 [16]	GI50 [17]	GI50 [18]	GI50 [19]
CC(=O)OC1/C=C(\C)C(OC(C)=O)C/C=C(/C)CCC2C(/C=C/C1=O)C2(C)C (stereo not drawn)	> 100 µM (inactive)	> 100 µM (inactive)	> 100 µM (inactive)	92.5 µM (inactive)	> 100 µM (inactive)	> 100 µM (inactive)	> 100 µM (inactive)	> 100 µM (inactive)	> 100 µM (inactive)	47.8 µM (inactive)	> 100 µM (inactive)	92.9 µM (inactive)	> 100 µM (inactive)	> 100 µM (inactive)	64.7 µM (inactive)	> 100 µM (inactive)			
O=C1CCC2COc3ccc(O)c1c32 (stereo not drawn)	> 100 µM (inactive)	> 100 µM (inactive)	> 100 µM (inactive)		> 100 µM (inactive)		> 100 µM (inactive)	> 100 µM (inactive)	> 100 µM (inactive)		> 100 µM (inactive)	> 100 µM (inactive)	24.1 µM (inactive)	> 100 µM (inactive)	> 100 µM (inactive)	> 100 µM (inactive)	> 100 µM (inactive)	> 100 µM (inactive)	> 100 µM (inactive)
O=C1N(C2CCCCC2)CC12CCCCC2	> 100 µM (inactive)	> 100 µM (inactive)	> 100 µM (inactive)	> 100 µM (inactive)			> 100 µM (inactive)	> 100 µM (inactive)	> 100 µM (inactive)	> 100 µM (inactive)	> 100 µM (inactive)	> 100 µM (inactive)	> 100 µM (inactive)	> 100 µM (inactive)	> 100 µM (inactive)	> 100 µM (inactive)		41.2 µM (inactive)	> 100 µM (inactive)
COc1ccc2c(c1)OCCC1=C2SCC2(C)CCN=C12 (stereo not drawn)		> 100 µM (inactive)	> 100 µM (inactive)	> 100 µM (inactive)	55.2 µM (inactive)	> 100 µM (inactive)	> 100 µM (inactive)	> 100 µM (inactive)	61.7 µM (inactive)	> 100 µM (inactive)	> 100 µM (inactive)	46.5 µM (inactive)	> 100 µM (inactive)	> 100 µM (inactive)	> 100 µM (inactive)	> 100 µM (inactive)		29 µM (inactive)	> 100 µM (inactive)
CCC1=CCN(c2ccc(C)cc2)OC1c1ccc(OC)cc1 (stereo not drawn)		56.6 µM (inactive)	> 100 µM (inactive)	> 100 µM (inactive)	33.8 µM (inactive)	> 100 µM (inactive)	> 100 µM (inactive)	52.6 µM (inactive)	39.7 µM (inactive)	23.6 µM (inactive)	> 100 µM (inactive)		> 100 µM (inactive)	> 100 µM (inactive)	> 100 µM (inactive)	> 100 µM (inactive)	94.8 µM (inactive)	68.2 µM (inactive)	43.3 µM (inactive)
c1ccc2c(c1)nnn2CNc1ccc(N2CCOCC2)cc1	> 100 µM (inactive)	> 100 µM (inactive)	> 100 µM (inactive)	> 100 µM (inactive)	> 100 µM (inactive)	> 100 µM (inactive)	> 100 µM (inactive)	> 100 µM (inactive)	> 100 µM (inactive)	> 100 µM (inactive)	> 100 µM (inactive)		> 100 µM (inactive)	> 100 µM (inactive)	> 100 µM (inactive)	> 100 µM (inactive)		33.3 µM (inactive)	47.4 µM (inactive)
COc1ccc(/N=C\c2cc(OC)c(OC)c(OC)c2)cc1	> 100 µM (inactive)	57.5 µM (inactive)		> 100 µM (inactive)	> 100 µM (inactive)	> 100 µM (inactive)	17.5 µM (inactive)		> 100 µM (inactive)		> 100 µM (inactive)	> 100 µM (inactive)	> 100 µM (inactive)	14.3 µM (inactive)	> 100 µM (inactive)	23.9 µM (inactive)			18.7 µM (inactive)
CCCCc1c2cnccc2c(CCCC)c2c1[nH]c1ccccc12	15.5 µM (inactive)	9.38 µM (inactive)	10.3 µM (inactive)	3.85 µM (inactive)	9.91 µM (inactive)	8.38 µM (inactive)	13.7 µM (inactive)	15.7 µM (inactive)	5.33 µM (inactive)	12.4 µM (inactive)	12.9 µM (inactive)		7.19 µM (inactive)	12.9 µM (inactive)	19.2 µM (inactive)	11.6 µM (inactive)	5.9 µM (inactive)		2.9 µM (inactive)
COc1ccc2c(OC)c3ccoc3nc2c1O	> 100 µM (inactive)	43.3 µM (inactive)	> 100 µM (inactive)	49.2 µM (inactive)	> 100 µM (inactive)	> 100 µM (inactive)		> 100 µM (inactive)	> 100 µM (inactive)	> 100 µM (inactive)	> 100 µM (inactive)	> 100 µM (inactive)	> 100 µM (inactive)	> 100 µM (inactive)	> 100 µM (inactive)	77.8 µM (inactive)	93.3 µM (inactive)		33.7 µM (inactive)
CC(=O)[C@@]1(c2ccccc2)CC2(CCN(C)CC2)O[C@H]1C	> 100 µM (inactive)		> 100 µM (inactive)	> 100 µM (inactive)	> 100 µM (inactive)	> 100 µM (inactive)	> 100 µM (inactive)	> 100 µM (inactive)	> 100 µM (inactive)	> 100 µM (inactive)	> 100 µM (inactive)	> 100 µM (inactive)	> 100 µM (inactive)	> 100 µM (inactive)	> 100 µM (inactive)		> 100 µM (inactive)		> 100 µM (inactive)
C#CCN1C(=O)CN2C(Cl)(Cl)C2(c2ccccc2)c2cc(Cl)ccc21 (stereo not drawn)		44.3 µM (inactive)	54.5 µM (inactive)	50 µM (inactive)	40.9 µM (inactive)	28.6 µM (inactive)	88.1 µM (inactive)	49.1 µM (inactive)	86.7 µM (inactive)	35.3 µM (inactive)	> 100 µM (inactive)	51.3 µM (inactive)		70.3 µM (inactive)	89.9 µM (inactive)		30.1 µM (inactive)		70.5 µM (inactive)
C=C1COC(/C=C(\C)CC/C=C(\C)CCl)C1 (stereo not drawn)	> 100 µM (inactive)	> 100 µM (inactive)	> 100 µM (inactive)	> 100 µM (inactive)	> 100 µM (inactive)	> 100 µM (inactive)	> 100 µM (inactive)	> 100 µM (inactive)	> 100 µM (inactive)	> 100 µM (inactive)	> 100 µM (inactive)	> 100 µM (inactive)	> 100 µM (inactive)	> 100 µM (inactive)	> 100 µM (inactive)	> 100 µM (inactive)		> 100 µM (inactive)	> 100 µM (inactive)
O=C1C(Cl)=C(N2CCSCC2)C(=O)c2c(O)ccc(O)c21			0.1 µM (active)		0.366 µM (active)	0.38 µM (active)	0.186 µM (active)	0.33 µM (active)	0.273 µM (active)	0.312 µM (active)		0.451 µM (active)		0.258 µM (active)	0.465 µM (active)	0.525 µM (active)	0.528 µM (active)		0.1 µM (active)
COc1cc(C2C(C(=O)NCc3ccccc3)=C(C)NC(C)=C2C(=O)NCc2ccccc2)ccc1O	84.9 µM (inactive)	26.3 µM (inactive)			21.5 µM (inactive)		32.6 µM (inactive)	34.4 µM (inactive)	31.7 µM (inactive)		38.3 µM (inactive)	59.4 µM (inactive)	29.9 µM (inactive)	37.5 µM (inactive)	35.2 µM (inactive)	21.8 µM (inactive)	24.9 µM (inactive)	25.4 µM (inactive)	23 µM (inactive)
O=C1NC2(CCCCC2)C2CCCCC(O)C12 (stereo not drawn)	> 100 µM (inactive)	> 100 µM (inactive)	> 100 µM (inactive)	> 100 µM (inactive)	> 100 µM (inactive)	> 100 µM (inactive)			> 100 µM (inactive)		> 100 µM (inactive)		> 100 µM (inactive)	> 100 µM (inactive)	> 100 µM (inactive)	> 100 µM (inactive)	> 100 µM (inactive)	> 100 µM (inactive)	> 100 µM (inactive)
COc1cc(CO)c(CC(=O)NCCCc2ccccc2)cc1OC	> 100 µM (inactive)	> 100 µM (inactive)	> 100 µM (inactive)	> 100 µM (inactive)	> 100 µM (inactive)	54.6 µM (inactive)	> 100 µM (inactive)	> 100 µM (inactive)	> 100 µM (inactive)		> 100 µM (inactive)	67.9 µM (inactive)	> 100 µM (inactive)	> 100 µM (inactive)	> 100 µM (inactive)	> 100 µM (inactive)	> 100 µM (inactive)	38 µM (inactive)	
CC(C)C(=O)/C=C/c1ccc(Br)cc1	14.5 µM (inactive)	3.15 µM (inactive)	23.4 µM (inactive)		14.7 µM (inactive)	13.8 µM (inactive)	17.3 µM (inactive)	17.9 µM (inactive)	17.7 µM (inactive)	12.2 µM (inactive)	23.2 µM (inactive)	12.7 µM (inactive)	16 µM (inactive)	5.51 µM (inactive)	16.9 µM (inactive)	14.5 µM (inactive)		10.8 µM (inactive)	5.38 µM (inactive)

From ChEMBL document CHEMBL1201862, “PubChem BioAssay data set” (2004)
